The values that follow come from US8299048B2, “Hexahydrocyclopentyl[f]indazole sulfonamides and derivatives thereof as selective glucocorticoid receptor modulators” (Merck Sharp & Dohme Corp., priority 2008, dated 2012).

Read-outs that look alike come from different tables or passages of the source. Bounds are passed on as bounds.

The target of this assay is T1, human GR (Homo sapiens, UniProt P04150).
T1 sequence (P04150 1-777): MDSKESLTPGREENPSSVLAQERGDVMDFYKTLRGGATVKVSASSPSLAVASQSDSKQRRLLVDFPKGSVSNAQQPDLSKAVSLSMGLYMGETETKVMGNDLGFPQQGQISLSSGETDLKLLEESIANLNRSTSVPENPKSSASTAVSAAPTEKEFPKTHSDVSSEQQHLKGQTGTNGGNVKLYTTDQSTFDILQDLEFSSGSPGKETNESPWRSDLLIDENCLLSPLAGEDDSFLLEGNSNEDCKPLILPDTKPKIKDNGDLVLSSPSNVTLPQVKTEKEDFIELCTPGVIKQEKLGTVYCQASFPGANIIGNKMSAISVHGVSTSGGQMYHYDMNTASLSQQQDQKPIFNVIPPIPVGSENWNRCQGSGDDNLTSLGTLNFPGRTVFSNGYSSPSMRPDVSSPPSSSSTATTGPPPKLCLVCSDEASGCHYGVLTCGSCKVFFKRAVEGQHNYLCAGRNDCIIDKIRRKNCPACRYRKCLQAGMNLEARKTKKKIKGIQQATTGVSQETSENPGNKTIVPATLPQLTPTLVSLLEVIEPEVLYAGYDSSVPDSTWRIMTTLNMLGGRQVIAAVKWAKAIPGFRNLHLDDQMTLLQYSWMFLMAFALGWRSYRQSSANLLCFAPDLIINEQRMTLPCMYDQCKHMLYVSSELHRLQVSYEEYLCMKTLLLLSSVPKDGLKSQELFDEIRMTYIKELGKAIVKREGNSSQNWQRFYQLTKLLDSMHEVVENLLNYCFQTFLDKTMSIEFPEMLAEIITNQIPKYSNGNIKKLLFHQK
Kind of assay: Transrepression Assay (GITAR), TNFα-β-lactamase reporter in U937 cells. The following applies: for GITAR > GRAMM % SEP: GITAR Emax minus GRAMMER Emax; for EC50: U937 cells, inflection point, read-out: Transrepression U937 Cells GITAR IP. The arrangement: U937 cells contain an endogenous glucocorticoid receptor (GR); endogenous in cells; host or cells: U937 cells stably transfected with the TNF-alpha promoter/beta-lactamase reporter. It is filed as cell-based. In short, it runs like this:
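Read-out: CCF2-AM β-lactamase signal after 70–90 min loading at room temperature. U937 TNF-α-promoter reporter cells (endogenous GR), compound 30–45 min at 37 °C, then PMA 5 ng/ml + LPS 100 ng/ml final, ~18 hr. Normalised to 100 nM dexamethasone = 100%.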

Where [1] appears, read: U-937, U937 cells, maximum activity, read-out: Transrepression U937 Cells GITAR Emax.
Where [2] appears, read: U-937, activity repressed by 100 nM dexamethasone alone set as 100%, read-out: maximal activity in the transrepression (GITAR) assay.

Consider `C[C@]12Cc3cnn(-c4ccc(F)cc4)c3C=C1CC[C@@H]2CN(CC1CC1)S(=O)(=O)/C=C/c1ccccc1` [Example 13, (E)-N-(cyclopropylmethyl)-N-{[(4αR,5S)-1-(4-fluorophenyl)-4α-methyl-1,4,4α,5,6,7-hexahydrocyclopenta[f]indazol-5-yl]methyl}-2-phenylethylenesulfonamide], for which the “GITAR > GRAMM % SEP” value amounted to 7.8% and the EC50 is 305 nM. In addition, the Emax under setting [1] came to 16.1%. For the same compound, the Emax under setting [2] is above 5%.
In the case of `CNC(=O)Nc1ccc(S(=O)(=O)N(CC2CC2)C[C@H]2CCC3=Cc4c(cnn4-c4ccc(F)cc4)C[C@@]32C)c(Cl)c1` [Example 14, 2-chloro-N-(cyclopropylmethyl)-N-{[(4αR,5S)-1-(4-fluorophenyl)-4α-methyl-1,4,4α,5,6,7-hexahydrocyclopenta[f]indazol-5-yl]methyl}-4-{[(methylamino)carbonyl]amino}-benzenesulfonamide], the “GITAR > GRAMM % SEP” value amounted to 34.1% and the EC50 is 553 nM. The Emax under setting [1] stood at 59.3%. The Emax under setting [2] was above 5%.
With `C[C@]12Cc3cnn(-c4ccc(F)cc4)c3C=C1CC[C@@H]2CN(CC1CC1)S(=O)(=O)c1ccc(F)c(Cl)c1` [Example 15, 3-chloro-N-(cyclopropylmethyl)-4-fluoro-N-{[(4αR,5S)-1-(4-fluorophenyl)-4α-methyl-1,4,4α,5,6,7-hexahydrocyclopenta[f]indazol-5-yl]methyl}benzenesulfonamide], the “GITAR > GRAMM % SEP” value is reported as 31.4% and the EC50 came out at 258 nM. Moreover, under setting [1], the Emax stood at 59%. Under setting [2], the Emax was above 5%.
For the compound `C[C@]12Cc3cnn(-c4ccc(F)cc4)c3C=C1CC[C@@H]2CN(CCC#N)S(=O)(=O)c1ccccc1F` [Example 16, N-(2-cyanoethyl)-2-fluoro-N-{[(4αR,5S)-1-(4-fluorophenyl)-4α-methyl-1,4,4α,5,6,7-hexahydrocyclopenta[f]indazol-5-yl]methyl}benzenesulfonamide], the EC50 was 268 nM. Besides, the Emax under setting [1] amounted to 84.5%. Further, the Emax under setting [2] is above 5%.
For `C[C@]12Cc3cnn(-c4ccc(F)cc4)c3C=C1CC[C@@H]2CN(CCO)S(=O)(=O)c1ccccc1F` [Example 17, 2-fluoro-N-{[(4αR,5S)-1-(4-fluorophenyl)-4α-methyl-1,4,4α,5,6,7-hexahydrocyclopenta[f]indazol-5-yl]methyl}-N-(2-hydroxyethyl)benzenesulfonamide] the same measures were 347 nM, 82.1% and above 5%.
As to `COC(=O)c1ccccc1S(=O)(=O)N(CC1CC1)C[C@H]1CCC2=Cc3c(cnn3-c3ccc(F)cc3)C[C@@]21C` [Example 18, methyl 2-[((cyclopropylmethyl){[(4αR,5S)-1-(4-fluorophenyl)-4α-methyl-1,4,4α,5,6,7-hexahydrocyclopenta[f]indazol-5 yl]methyl}amino)sulfonyl]benzoate], the “GITAR > GRAMM % SEP” value stood at 15.3% and the EC50 came to 415 nM. Further, the Emax under setting [1] was determined as 35.3%. Besides, the Emax under setting [2] is above 5%.
Turning to `C[C@]12Cc3cnn(-c4ccc(F)cc4)c3C=C1CC[C@@H]2CN(CCO)S(=O)(=O)c1ccc(F)c(Cl)c1` [Example 19, 3-chloro-4-fluoro-N-{[(4αR,5S)-1-(4-fluorophenyl)-4α-methyl-1,4,4α,5,6,7-hexahydrocyclopenta[f]indazol-5-yl]methyl}-N-(2-hydroxyethyl)benzenesulfonamide], the “GITAR > GRAMM % SEP” value came to 49.1% and the EC50 was found to be 1720 nM. Further, under setting [1], the Emax is 69.8%. Also, the Emax under setting [2] is above 5%.
The matching figures for `C[C@]12Cc3cnn(-c4ccc(F)cc4)c3C=C1CC[C@@H]2CN(CC#N)S(=O)(=O)c1ccc(F)c(Cl)c1` [Example 20, 3-chloro-N-(cyanomethyl)-4-fluoro-N-{[(4αR,5S)-1-(4-fluorophenyl)-4α-methyl-1,4,4α,5,6,7-hexahydrocyclopenta[f]indazol-5-yl]methyl}benzenesulfonamide]: 1.6%, 373 nM, 69.7% and above 5%.
In the case of `C[C@]12Cc3cnn(-c4ccc(F)cc4)c3C=C1CC[C@@H]2CN(CC1CC1)S(=O)(=O)Cc1ccccc1` [Example 21, N-(cyclopropylmethyl)-N-{[(4αR,5S)-1-(4-fluorophenyl)-4α-methyl-1,4,4α,5,6,7-hexahydrocyclopenta[f]indazol-5-yl]methyl}-1-phenylmethanesulfonamide], the EC50 is 365 nM. Under setting [1], the Emax was 58.7%. In addition, the Emax under setting [2] is above 5%.
As to `Cc1oncc1S(=O)(=O)N(CC#N)C[C@H]1CCC2=Cc3c(cnn3-c3ccc(F)cc3)C[C@@]21C` [Example 23, N-(cyanomethyl)-N-{[(4αR,5S)-1-(4-fluorophenyl)-4α-methyl-1,4,4α,5,6,7-hexahydrocyclopenta[f]indazol-5-yl]methyl}-5-methylisoxazole-4-sulfonamide], the “GITAR > GRAMM % SEP” value turned out to be 31.3% and the EC50 stood at 2250 nM. Further, the Emax under setting [1] is 34%. For the same compound, the Emax under setting [2] is above 5%.
For `C[C@]12Cc3cnn(-c4ccc(F)cc4)c3C=C1CC[C@@H]2CN(CC#N)S(=O)(=O)c1cc(Cl)c(Cl)s1` [Example 24, 4,5-dichloro-N-(cyanomethyl)-N-{[(4αR,5S)-1-(4-fluorophenyl)-4α-methyl-1,4,4α,5,6,7-hexahydrocyclopenta[f]indazol-5-yl]methyl}thiophene-2-sulfonamide] the same measures were 27.2%, 565 nM, 37.7% and above 5%.
Take `C[C@]12Cc3cnn(-c4ccc(F)cc4)c3C=C1CC[C@@H]2CN(CC#N)S(=O)(=O)c1ccc(F)c(F)c1` [Example 25, N-(cyanomethyl)-3,4-difluoro-N-{[(4αR,5S)-1-(4-fluorophenyl)-4α-methyl-1,4,4α,5,6,7-hexahydrocyclopenta[f]indazol-5-yl]methyl}benzenesulfonamide]: the “GITAR > GRAMM % SEP” value is 13.0% and the EC50 was 222 nM. Further, under setting [1], the Emax was determined as 89.4%. For the same compound, the Emax under setting [2] was above 5%.
With `C[C@]12Cc3cnn(-c4ccc(F)cc4)c3C=C1CC[C@@H]2CN(CC#N)S(=O)(=O)c1cccc(Cl)c1Cl` [Example 26, 2,3-dichloro-N-(cyanomethyl)-N-{[(4αR,5S)-1-(4-fluorophenyl)-4α-methyl-1,4,4α,5,6,7-hexahydrocyclopenta[f]indazol-5-yl]methyl}benzenesulfonamide], the “GITAR > GRAMM % SEP” value came to 10.2% and the EC50 was 25 nM. For the same compound, the Emax under setting [1] was determined as 16%. Further, the Emax under setting [2] was above 5%.
Take `C[C@]12Cc3cnn(-c4ccc(F)cc4)c3C=C1CC[C@@H]2CN(CC#N)S(=O)(=O)c1ccc(Cl)c(C(F)(F)F)c1` [Example 27, 4-chloro-N-(cyanomethyl)-N-{[(4αR,5S)-1-(4-fluorophenyl)-4α-methyl-1,4,4α,5,6,7-hexahydrocyclopenta[f]indazol-5-yl]methyl}-3-(trifluoromethyl)benzenesulfonamide]: the “GITAR > GRAMM % SEP” value is reported as 10.0% and the EC50 worked out at 638 nM. Besides, the Emax under setting [1] was determined as 13%. Besides, under setting [2], the Emax is above 5%.
Take `C[C@]12Cc3cnn(-c4ccc(F)cc4)c3C=C1CC[C@@H]2CN(CC#N)S(=O)(=O)c1ccc(C#N)cc1` [Example 28, 4-cyano-N-(cyanomethyl)-N-{[(4αR,5S)-1-(4-fluorophenyl)-4α-methyl-1,4,4α,5,6,7-hexahydrocyclopenta[f]indazol-5-yl]methyl}benzenesulfonamide]: the “GITAR > GRAMM % SEP” value stood at 34.8% and the EC50 stood at 662 nM. Also, the Emax under setting [1] came out at 78.8%. For the same compound, under setting [2], the Emax is above 5%.
With `Cc1cc(S(=O)(=O)N(CC#N)C[C@H]2CCC3=Cc4c(cnn4-c4ccc(F)cc4)C[C@@]32C)c(C)cc1Cl` [Example 29, 4-chloro-N-(cyanomethyl)-N-{[(4αR,5S)-1-(4-fluorophenyl)-4α-methyl-1,4,4α,5,6,7-hexahydrocyclopenta[f]indazol-5-yl]methyl}-2,5-dimethylbenzenesulfonamide], the “GITAR > GRAMM % SEP” value is 26.2% and the EC50 was 838 nM. Under setting [1], the Emax is 30.9%. The Emax under setting [2] was above 5%.
